Key:
human TLR7 = molecular target: T1, human TLR7 (Homo sapiens, UniProt Q9NYK1); experiment: TLR7 cellular reporter assay (HEK293, NFκB-luc); format: cell-based; conditions: HEK293 cells transfected with CMV-TLR7 and NFκB-luc, 6 hours incubation; lowest effective concentration
T1 construct: expressed in transfected cells; host or cells: HEK293 cells, transient transfection with CMV-TLR7 plasmid and NFκB-luc plasmid
T1 sequence (Q9NYK1 27-1049): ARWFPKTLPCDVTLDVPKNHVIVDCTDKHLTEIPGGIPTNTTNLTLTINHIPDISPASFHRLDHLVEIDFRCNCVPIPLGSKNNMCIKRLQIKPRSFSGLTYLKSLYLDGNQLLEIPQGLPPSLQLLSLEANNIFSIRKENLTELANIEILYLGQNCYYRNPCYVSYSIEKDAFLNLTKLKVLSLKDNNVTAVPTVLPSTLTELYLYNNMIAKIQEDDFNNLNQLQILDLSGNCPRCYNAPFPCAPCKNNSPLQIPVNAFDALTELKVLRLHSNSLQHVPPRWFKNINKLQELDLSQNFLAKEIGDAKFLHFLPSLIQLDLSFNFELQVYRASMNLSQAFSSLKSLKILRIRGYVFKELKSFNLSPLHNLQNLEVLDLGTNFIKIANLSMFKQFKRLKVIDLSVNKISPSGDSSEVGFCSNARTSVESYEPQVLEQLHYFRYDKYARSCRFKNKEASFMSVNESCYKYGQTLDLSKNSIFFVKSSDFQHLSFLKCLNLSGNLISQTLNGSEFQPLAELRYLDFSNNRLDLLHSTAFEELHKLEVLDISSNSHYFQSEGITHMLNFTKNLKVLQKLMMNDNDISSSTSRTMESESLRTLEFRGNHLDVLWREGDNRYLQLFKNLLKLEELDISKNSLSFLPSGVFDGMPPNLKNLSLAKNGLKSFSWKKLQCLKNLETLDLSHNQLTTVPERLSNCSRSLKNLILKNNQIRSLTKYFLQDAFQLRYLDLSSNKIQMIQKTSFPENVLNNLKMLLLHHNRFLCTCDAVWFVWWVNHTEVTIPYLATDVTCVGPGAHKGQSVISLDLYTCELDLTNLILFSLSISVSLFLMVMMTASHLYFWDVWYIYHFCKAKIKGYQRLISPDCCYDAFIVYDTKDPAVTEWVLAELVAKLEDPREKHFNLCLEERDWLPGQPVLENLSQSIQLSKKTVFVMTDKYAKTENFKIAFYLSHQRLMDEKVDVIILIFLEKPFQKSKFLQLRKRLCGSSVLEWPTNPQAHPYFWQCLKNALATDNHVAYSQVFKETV
Procedure, shortened: (§1)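 HEK293 cells transiently transfected with receptor expression vector plus NFκB-luciferase reporter, exposed to compound (added in 4% DMSO) for 6 hours at 37° C, 5% CO2. Luciferase activity measured by luminescence; dose-response curves from quadruplicate measurements.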

human TLR8 = molecular target: T2, human TLR8 (Homo sapiens, UniProt Q9NR97); experiment: TLR8 cellular reporter assay (HEK293, NFκB-luc); format: cell-based; conditions: HEK293 cells transfected with CMV-TLR8 and NFκB-luc, 6 hours incubation; lowest effective concentration
T2 construct: expressed in transfected cells; host or cells: HEK293 cells, transient transfection with TLR8 plasmid and NFκB-luc plasmid
T2 sequence (Q9NR97 27-1041): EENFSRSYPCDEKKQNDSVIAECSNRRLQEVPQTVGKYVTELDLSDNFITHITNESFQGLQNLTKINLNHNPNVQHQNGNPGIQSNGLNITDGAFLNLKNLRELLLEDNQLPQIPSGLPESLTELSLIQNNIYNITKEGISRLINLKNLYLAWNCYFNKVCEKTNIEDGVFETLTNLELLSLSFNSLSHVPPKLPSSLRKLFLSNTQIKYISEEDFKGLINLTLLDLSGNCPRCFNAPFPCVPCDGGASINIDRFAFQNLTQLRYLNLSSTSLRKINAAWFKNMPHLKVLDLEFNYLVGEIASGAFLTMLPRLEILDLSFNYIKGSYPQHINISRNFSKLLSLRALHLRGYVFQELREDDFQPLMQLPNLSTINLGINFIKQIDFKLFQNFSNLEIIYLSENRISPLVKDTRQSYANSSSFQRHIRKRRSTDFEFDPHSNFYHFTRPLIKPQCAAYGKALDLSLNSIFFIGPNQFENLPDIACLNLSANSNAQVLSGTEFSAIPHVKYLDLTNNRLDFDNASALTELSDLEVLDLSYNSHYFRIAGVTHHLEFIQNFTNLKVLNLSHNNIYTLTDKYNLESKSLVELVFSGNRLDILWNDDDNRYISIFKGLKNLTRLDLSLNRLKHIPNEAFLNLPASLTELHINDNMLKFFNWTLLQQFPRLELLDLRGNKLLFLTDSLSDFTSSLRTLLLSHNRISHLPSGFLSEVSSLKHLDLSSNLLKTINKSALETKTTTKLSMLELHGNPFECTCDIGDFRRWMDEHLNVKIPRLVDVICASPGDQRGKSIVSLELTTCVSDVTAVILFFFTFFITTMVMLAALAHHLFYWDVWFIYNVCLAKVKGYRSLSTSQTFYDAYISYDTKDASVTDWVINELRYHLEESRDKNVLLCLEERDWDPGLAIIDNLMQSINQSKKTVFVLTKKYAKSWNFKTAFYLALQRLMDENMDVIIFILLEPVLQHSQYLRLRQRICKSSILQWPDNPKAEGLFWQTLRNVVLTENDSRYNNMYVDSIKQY
Procedure, shortened: as §1

[1] = system: interferon-stimulated responsive elements (ISRE); experiment: Activation of ISRE promoter elements by conditioned media from PBMC (HEK-ISREluc); format: cell-based, human; conditions: Homo sapiens; conditioned media from PBMC transferred to HEK-ISREluc cells, 24 hours; lowest effective concentration; read-out: PBMC LEC
Procedure, shortened: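 Human PBMCs (≥2 donors, RPMI + 10% human AB serum, 2×10^5 cells/well) incubated overnight with compound; supernatant transferred to HEK293 cells stably carrying pISRE-Luc for 24 h, then luciferase read. LEC = compound concentration on PBMCs giving luciferase signal at least two-fold above assay SD; recombinant IFN-α-2a standard.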

| TLR7 LEC (human TLR7) | TLR8 LEC (human TLR8) | SMILES | minimal effective concentration [1] |
| --- | --- | --- | --- |
| 0.172 µM | >25 µM | COCCNc1nc(N)nc2ccn(Cc3ccncc3OC)c12 [Compound 121] | 0.046 µM |
| 0.126 µM | >25 µM | CC(C)c1cc(CNc2nc(N)nc3ccn(Cc4cscn4)c23)no1 [Compound 108] | 0.07 µM |
| 0.04 µM | >25 µM | Cc1cc(CNc2nc(N)nc3ccn(Cc4cn(-c5ccccc5)nn4)c23)no1 [Compound 176] | 0.009 µM |
| 1.320 µM | >25 µM | COCCNc1nc(N)nc2ccn(Cc3cccc(C)n3)c12 [Compound 113] | 0.807 µM |
| 0.15 µM | >25 µM | Cc1cc(CNc2nc(N)nc3ccn(Cc4cccc(F)n4)c23)no1 [Compound 178] | 0.014 µM |
| <0.01 µM | >25 µM | COc1ccccc1Cn1ccc2nc(N)nc(NCc3ncc(C)s3)c21 [Compound 215] | 0.001 µM |
| 0.08 µM | >25 µM | Cc1cc(CNc2nc(N)nc3ccn(Cc4cscn4)c23)no1 [Compound 154] | 0.017 µM |
| 0.11 µM | 1.1 µM | CCCC[C@@H](CCO)Nc1nc(N)nc2ccn(CC(C)C)c12 [Compound 28] | 0.03 µM |
| 1.49 µM | >25 µM | CCNc1nc(N)nc2ccn(Cc3ccccc3)c12 [Compound 35] | 0.7 µM |
| 0.99 µM | 17.5 µM | CCCCNc1nc(N)nc2ccn(Cc3ncccn3)c12 [Compound 56] | 0.07 µM |
| 0.01 µM | >25 µM | CCC[C@@H](CCO)Nc1nc(N)nc2c(F)cn(Cc3ccccc3)c12 [Compound 94] | 0.01 µM |
| 0.01 µM | >25 µM | CCC[C@@H](CCO)Nc1nc(N)nc2ccn(CC3CCCCC3)c12 [Compound 87] | 0.008 µM |
| 0.0004 µM | 0.5577 µM | CCCC[C@@H](CCO)Nc1nc(N)nc2ccn(Cc3ccccc3OC)c12 [Compound 78] | < 0.0004 µM |
| 0.07 µM | >25 µM | CCCCNc1nc(N)nc2ccn(Cc3ccccc3OCC)c12 [Compound 133] | 0.023 µM |
| 0.59 µM | >25 µM | Cc1cc(CNc2nc(N)nc3ccn(Cc4ccc5cccnc5n4)c23)no1 [Compound 183] | 0.009 µM |
| 0.05 µM | >25 µM | Cc1cc(CNc2nc(N)nc3ccn(Cc4cc5ccccc5cn4)c23)no1 [Compound 182] | 0.018 µM |
| 0.002 µM | >25 µM | COc1ccccc1Cn1ccc2nc(N)nc(NCc3cc(C)on3)c21 [Compound 110] | 0.001 µM |

| TLR7 LEC (human TLR7) | TLR8 LEC (human TLR8) | SMILES | minimal effective concentration [1] |
| --- | --- | --- | --- |
| <0.01 µM | 0.1 µM | CCCC[C@@H](CCO)Nc1nc(N)nc2ccn(Cc3c(OC)cccc3OC)c12 [Compound 99] | < 0.001 µM |
| 1.650 µM | >25 µM | COCCNc1nc(N)nc2ccn(Cc3ccncc3)c12 [Compound 118] | 3.01 µM |
| 0.52 µM | 6.57 µM | CCCC[C@@H](CO)Nc1nc(N)nc2ccn(Cc3cccnn3)c12 [Compound 14] | 0.01 µM |
| 0.02 µM | >25 µM | Cc1ccc(Cn2ccc3nc(N)nc(NCc4cc(C)on4)c32)nc1 [Compound 175] | 0.009 µM |
| <0.01 µM | 0.23 µM | CCCCNc1nc(N)nc2ccn(Cc3c(OC)cccc3OC)c12 [Compound 97] | 0.001 µM |
| 0.61 µM | >25 µM | CCCCNc1nc(N)nc2ccn(Cc3ccccc3-c3ccccc3)c12 [Compound 7] | 0.8 µM |
| 0.04 µM | >25 µM | COc1cc(OC)nc(Cn2ccc3nc(N)nc(NCc4noc(C)n4)c32)n1 [Compound 209] | 0.008 µM |
| 0.032 µM | >25 µM | COCCNc1nc(N)nc2ccn(Cc3ccccc3OC)c12 [Compound 103] | 0.018 µM |
| 5.84 µM | >25 µM | CCC[C@@H](CO)Nc1nc(N)nc2ccn(Cc3cccnn3)c12 [Compound 15] | 0.1 µM |
| 0.004 µM | 0.94 µM | CCCC(C)Nc1nc(N)nc2ccn(Cc3ccccc3OC)c12 (stereo not drawn) [Compound 79] | 0.001 µM |
| 13.8 µM | >25 µM | CC(C)OCCNc1nc(N)nc2ccn(Cc3ccccn3)c12 [Compound 137] | 2.03 µM |
| 0.07 µM | 12.5 µM | CCC[C@@H](CO)Nc1nc(N)nc2ccn(Cc3ccccc3)c12 [Compound 17] | 0.01 µM |
| 0.60 µM | 13.5 µM | CCCCNc1nc(N)nc2ccn(CCOC)c12 [Compound 4] | 0.4 µM |
| 1.20 µM | >25 µM | CCCCNc1nc(N)nc2ccn(Cc3cc(OC4CCOC4)c(OC)cn3)c12 (stereo not drawn) [Compound 134] | 0.104 µM |
| 0.54 µM | >25 µM | CC[C@H](C)[C@@H](CO)Nc1nc(N)nc2ccn(Cc3ccccc3)c12 [Compound 38] | 0.63 µM |
| 0.04 µM | >25 µM | CCCC(C)Nc1nc(N)nc2ccn(Cc3ccc(OC)cc3)c12 (stereo not drawn) [Compound 75] | 0.04 µM |
| 0.50 µM | >25 µM | CCCCNc1nc(N)nc2ccn(Cc3ccccc3Oc3ccccc3)c12 [Compound 2] | 0.6 µM |
